Here are results for six compounds from ChEMBL document CHEMBL5465560, “Selectivity Literature for EUbOPEN Chemogenomic Library” (2024).

The target of test [1] is Protein-tyrosine kinase 2-beta (Homo sapiens) (UniProt Q14289). The test can be described thus: Selectivity interaction (Ambit KINOMEscan and KiNATiv profiling in Jurkat cells) EUB0000090b PTK2B. It counts as cell-based. The conditions noted are these: at 1 µM.
For test [2], the target named is T1, Tyrosine-protein kinase ITK/TSK (Homo sapiens) (UniProt Q08881).
T1 sequence (whole entry): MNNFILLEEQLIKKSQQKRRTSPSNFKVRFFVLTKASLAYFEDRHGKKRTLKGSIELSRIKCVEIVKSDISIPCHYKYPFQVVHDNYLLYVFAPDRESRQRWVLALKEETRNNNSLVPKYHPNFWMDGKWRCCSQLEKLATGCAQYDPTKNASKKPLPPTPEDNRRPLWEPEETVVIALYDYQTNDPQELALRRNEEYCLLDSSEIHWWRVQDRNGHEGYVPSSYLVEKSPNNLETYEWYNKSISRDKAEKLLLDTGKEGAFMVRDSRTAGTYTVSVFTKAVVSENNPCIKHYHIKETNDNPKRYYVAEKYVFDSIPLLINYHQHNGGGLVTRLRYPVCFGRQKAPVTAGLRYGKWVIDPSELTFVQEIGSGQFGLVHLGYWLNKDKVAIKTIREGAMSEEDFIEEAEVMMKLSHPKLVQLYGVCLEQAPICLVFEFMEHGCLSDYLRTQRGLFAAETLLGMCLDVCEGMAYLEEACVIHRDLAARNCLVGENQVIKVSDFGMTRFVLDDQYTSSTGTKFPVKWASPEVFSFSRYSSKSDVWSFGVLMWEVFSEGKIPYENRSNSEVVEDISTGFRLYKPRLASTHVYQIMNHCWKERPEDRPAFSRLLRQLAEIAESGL
As to the kind of experiment: Selectivity interaction (SelectScreen profiling (Invitrogen)) EUB0000607a ITK. The conditions noted are these: at 2 µM.

Test [3] has as its target Serine/threonine-protein kinase PAK 2 (Homo sapiens) (UniProt Q13177). As to the kind of experiment: Selectivity interaction (SelectScreen profiling (Invitrogen)) EUB0000607a PAK2. The settings on record: at 2 µM.
Test [4] deals with T2, Histone-lysine N-methyltransferase EHMT2 (Homo sapiens) (UniProt Q96KQ7).
T2 sequence (whole entry): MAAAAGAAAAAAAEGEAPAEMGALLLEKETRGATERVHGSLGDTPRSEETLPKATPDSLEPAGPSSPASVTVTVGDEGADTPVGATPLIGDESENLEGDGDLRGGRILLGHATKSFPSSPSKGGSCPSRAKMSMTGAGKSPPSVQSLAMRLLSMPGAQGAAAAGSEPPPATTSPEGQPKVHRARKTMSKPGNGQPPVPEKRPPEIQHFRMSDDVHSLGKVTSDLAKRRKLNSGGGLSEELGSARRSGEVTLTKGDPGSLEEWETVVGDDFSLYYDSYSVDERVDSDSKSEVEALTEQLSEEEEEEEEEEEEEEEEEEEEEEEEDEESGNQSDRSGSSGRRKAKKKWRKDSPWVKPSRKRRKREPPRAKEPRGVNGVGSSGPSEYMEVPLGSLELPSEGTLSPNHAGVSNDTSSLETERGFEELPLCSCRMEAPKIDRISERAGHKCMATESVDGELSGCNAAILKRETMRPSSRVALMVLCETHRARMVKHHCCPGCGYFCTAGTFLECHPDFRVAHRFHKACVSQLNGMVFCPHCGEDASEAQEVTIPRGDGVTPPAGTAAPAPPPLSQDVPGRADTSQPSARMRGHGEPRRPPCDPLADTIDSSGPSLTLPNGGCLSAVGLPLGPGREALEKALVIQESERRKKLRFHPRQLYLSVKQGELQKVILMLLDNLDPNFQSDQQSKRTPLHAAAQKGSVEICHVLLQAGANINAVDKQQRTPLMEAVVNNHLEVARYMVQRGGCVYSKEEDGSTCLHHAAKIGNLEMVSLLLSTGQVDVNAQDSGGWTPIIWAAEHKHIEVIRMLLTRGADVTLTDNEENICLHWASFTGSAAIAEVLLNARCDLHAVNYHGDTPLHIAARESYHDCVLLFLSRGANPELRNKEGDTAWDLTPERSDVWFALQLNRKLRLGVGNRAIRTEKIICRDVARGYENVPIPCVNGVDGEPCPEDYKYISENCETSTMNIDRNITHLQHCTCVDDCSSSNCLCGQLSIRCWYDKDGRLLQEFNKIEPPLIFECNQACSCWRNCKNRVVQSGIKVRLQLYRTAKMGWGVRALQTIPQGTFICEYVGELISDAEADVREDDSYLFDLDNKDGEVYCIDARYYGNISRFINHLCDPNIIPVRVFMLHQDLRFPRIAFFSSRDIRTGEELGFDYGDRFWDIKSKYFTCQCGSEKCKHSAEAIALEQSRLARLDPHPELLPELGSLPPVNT
The test can be described thus: Selectivity interaction (Methyltransferase screen (Scintillation proximity assays)) EUB0000255b EHMT2. In general terms: SPA uses beads or plates that emit light when radiolabelled molecules are held near them.

Test [5] has as its target 5'-AMP-activated protein kinase catalytic subunit alpha-2 (Homo sapiens) (UniProt P54646). The test can be described thus: Selectivity interaction (ActivX KiNativ screen (ex vivo kinase selectivity in human PBMCs)) EUB0001619a PRKAA2. The format is cell-based. The settings on record: PBMC, at 1 µM.
Test [6] has as its target T3, Cytoplasmic tyrosine-protein kinase BMX (Homo sapiens) (UniProt P51813).
T3 sequence (whole entry): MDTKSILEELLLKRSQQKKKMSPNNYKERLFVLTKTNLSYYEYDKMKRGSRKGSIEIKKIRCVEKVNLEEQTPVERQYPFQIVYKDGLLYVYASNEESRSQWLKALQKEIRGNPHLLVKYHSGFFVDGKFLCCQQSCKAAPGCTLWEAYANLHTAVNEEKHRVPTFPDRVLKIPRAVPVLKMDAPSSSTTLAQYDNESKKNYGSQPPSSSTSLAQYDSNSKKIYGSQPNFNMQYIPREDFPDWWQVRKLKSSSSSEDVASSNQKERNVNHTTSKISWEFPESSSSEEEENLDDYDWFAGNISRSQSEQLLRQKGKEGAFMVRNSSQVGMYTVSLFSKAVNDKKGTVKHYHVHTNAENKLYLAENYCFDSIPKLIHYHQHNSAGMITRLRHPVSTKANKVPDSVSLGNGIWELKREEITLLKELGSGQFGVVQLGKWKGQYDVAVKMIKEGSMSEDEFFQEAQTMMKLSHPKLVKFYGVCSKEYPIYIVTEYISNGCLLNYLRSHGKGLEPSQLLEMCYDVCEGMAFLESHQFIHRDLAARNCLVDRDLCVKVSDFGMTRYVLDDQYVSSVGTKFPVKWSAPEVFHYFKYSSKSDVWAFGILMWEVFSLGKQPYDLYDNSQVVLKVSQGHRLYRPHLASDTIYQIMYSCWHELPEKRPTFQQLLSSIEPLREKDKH
The test can be described thus: Selectivity interaction (Kinase panel (Invitrogen)) EUB0000639a BMX. The conditions noted are these: at 200 nM.

Test [7] addresses Glutamate receptor ionotropic, NMDA 1 (Homo sapiens) (UniProt Q05586). The test can be described thus: Selectivity interaction (Panel of kinases, GPCRs, ion channels and transporters (enzymatic assay)) EUB0000223bCl GRIN1.

Where only a bound is given, the exact number is not on record here.

Serine/threonine-protein kinase PAK 2 (Homo sapiens), sequence (Q13177 whole entry): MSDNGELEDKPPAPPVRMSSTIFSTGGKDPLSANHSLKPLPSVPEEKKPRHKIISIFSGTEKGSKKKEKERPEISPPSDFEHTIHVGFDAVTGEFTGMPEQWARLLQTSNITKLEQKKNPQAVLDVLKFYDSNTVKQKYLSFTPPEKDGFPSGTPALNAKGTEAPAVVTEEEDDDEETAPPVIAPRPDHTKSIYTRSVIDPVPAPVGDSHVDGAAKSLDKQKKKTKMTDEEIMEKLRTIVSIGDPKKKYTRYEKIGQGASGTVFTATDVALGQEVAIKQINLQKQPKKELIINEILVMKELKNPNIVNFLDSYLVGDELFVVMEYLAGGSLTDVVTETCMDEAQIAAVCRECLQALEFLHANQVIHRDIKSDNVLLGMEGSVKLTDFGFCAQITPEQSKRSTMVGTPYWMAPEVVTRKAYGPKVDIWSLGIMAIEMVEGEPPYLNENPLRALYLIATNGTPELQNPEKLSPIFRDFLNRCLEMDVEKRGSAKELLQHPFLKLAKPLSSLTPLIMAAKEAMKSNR
Protein-tyrosine kinase 2-beta (Homo sapiens), sequence (Q14289 whole entry, looked up): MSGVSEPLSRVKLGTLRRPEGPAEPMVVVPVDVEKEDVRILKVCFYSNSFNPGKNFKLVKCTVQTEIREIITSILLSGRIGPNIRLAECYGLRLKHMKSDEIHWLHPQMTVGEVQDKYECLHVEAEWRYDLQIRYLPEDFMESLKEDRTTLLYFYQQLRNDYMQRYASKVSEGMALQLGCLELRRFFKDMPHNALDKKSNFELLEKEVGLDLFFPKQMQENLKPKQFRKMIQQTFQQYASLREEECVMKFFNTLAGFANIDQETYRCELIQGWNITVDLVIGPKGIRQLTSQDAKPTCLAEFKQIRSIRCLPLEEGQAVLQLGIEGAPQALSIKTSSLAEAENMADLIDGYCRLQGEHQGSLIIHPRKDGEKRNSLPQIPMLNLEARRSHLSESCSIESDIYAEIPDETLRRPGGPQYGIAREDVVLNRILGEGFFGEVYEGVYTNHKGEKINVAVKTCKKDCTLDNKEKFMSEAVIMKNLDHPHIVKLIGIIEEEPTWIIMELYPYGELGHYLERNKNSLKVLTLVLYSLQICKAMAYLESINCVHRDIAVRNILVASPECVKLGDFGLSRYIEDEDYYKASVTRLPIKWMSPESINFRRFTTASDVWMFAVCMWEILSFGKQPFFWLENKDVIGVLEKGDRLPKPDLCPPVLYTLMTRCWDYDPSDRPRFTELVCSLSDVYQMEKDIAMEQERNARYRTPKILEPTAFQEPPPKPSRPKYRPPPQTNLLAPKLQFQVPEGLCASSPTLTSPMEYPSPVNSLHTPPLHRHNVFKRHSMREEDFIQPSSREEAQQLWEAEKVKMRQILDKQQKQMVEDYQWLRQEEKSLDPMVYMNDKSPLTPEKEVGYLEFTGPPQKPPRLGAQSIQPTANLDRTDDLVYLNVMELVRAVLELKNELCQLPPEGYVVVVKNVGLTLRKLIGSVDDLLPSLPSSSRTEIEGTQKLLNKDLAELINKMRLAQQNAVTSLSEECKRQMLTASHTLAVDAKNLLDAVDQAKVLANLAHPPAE
5'-AMP-activated protein kinase catalytic subunit alpha-2 (Homo sapiens), sequence (P54646 whole entry, looked up): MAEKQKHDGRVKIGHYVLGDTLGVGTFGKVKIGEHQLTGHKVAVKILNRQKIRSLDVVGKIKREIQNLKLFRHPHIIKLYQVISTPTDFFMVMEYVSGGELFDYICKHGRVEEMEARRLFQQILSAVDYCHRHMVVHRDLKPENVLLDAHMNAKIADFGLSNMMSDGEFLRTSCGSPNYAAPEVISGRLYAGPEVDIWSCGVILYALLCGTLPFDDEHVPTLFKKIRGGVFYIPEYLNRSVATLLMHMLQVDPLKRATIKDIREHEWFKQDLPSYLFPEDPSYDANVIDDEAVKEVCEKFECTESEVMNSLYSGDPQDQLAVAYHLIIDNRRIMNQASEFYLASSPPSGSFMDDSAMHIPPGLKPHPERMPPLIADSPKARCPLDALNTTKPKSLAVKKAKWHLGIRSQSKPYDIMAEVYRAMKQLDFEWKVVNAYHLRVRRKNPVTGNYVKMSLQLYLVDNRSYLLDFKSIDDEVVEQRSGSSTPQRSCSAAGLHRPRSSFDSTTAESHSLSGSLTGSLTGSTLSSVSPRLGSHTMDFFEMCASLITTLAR

`CN(C)C/C=C/C(=O)Nc1ccc(C(=O)N2CCCC(Nc3ncc(Cl)c(-c4c[nH]c5ccccc45)n3)C2)cc1` (stereo not drawn): in test [1], the % of control was found to be 93%. Take `CNC(=O)Nc1ccc(-c2nc(N3CC4CCC(C3)O4)c3cnn(C4CCC5(CC4)OCCO5)c3n2)cc1`: the % of inhibition in test [2] worked out at 2%; in test [3], 15%.

As for `COCCN1CCC(c2cc(CN(C)C(=O)c3cccc(Oc4ccccc4)c3)ccn2)CC1`, the % activity is greater than 95% in test [4] (at 1 µM) and greater than 90% in test [4] (at 10 µM). Consider `N#Cc1cccc(-c2c[nH]c3ncnc(N4CCOCC4)c23)c1`, for which the % of inhibition in test [5] was determined as 27%.

Turning to `CC[C@@H]1[C@H](F)C(=O)N[C@@H]1COc1nccc2cc(C(N)=O)c(OC)cc12` [ZIMLOVISERTIB], in test [6], the % of inhibition is -1.42%. In turn, `COc1cc(C(=O)N2CC[C@@H](O)[C@@H](N)C2)cc2nc(-c3cc4ccccc4n3CC3CC3)n(C)c12` gave a pXC50 in test [7] of 4.8 M.
